# In patent US7915022B2, “Carbonyl reductase, gene thereof and method of using the same” (priority 2004, dated 2011):
# Experiments:
# [1] = system: polypeptide consisting of the amino acid sequence shown in SEQ ID NO: 3 (carbonyl reductase), cell-free extract of E. coli HB101 (pNTOM3); assay: Substrate specificity of polypeptide produced by transformant E. coli HB101 (pNTOM3); type: biochemical, Ogataea minuta var. minuta NBRC0975; conditions: 1 mM substrate, 0.25 mM NADPH, pH 6.5, 30° C., 1 min; relative to activity on CBPB as 100%
# Method: (§1) In 100 mM phosphate buffer (pH 6.5) containing 0.33% (v/v) dimethyl sulfoxide were dissolved a carbonyl compound to be a substrate to a final concentration of 1 mM, and a coenzyme NADPH to a final concentration of 0.25 mM, respectively. Thereto was added a cell-free extract of E. coli HB101 (pNTOM4) or E. coli HB101 (pNTOM3) prepared in Example 7, and the mixture was reacted at 30° C. for 1 min. The reduction activity on each carbonyl compound was calculated from the rate of decrease in the absorbance of the reaction mixture at a wavelength of 340 nm, and shown in Table 2 as a value relative to the activity on (3S)-1-chloro-3-tert-butoxycarbonylamino-4-phenyl-2-butanone as 100%.
# [2] = system: polypeptide consisting of the amino acid sequence shown in SEQ ID NO: 4 (carbonyl reductase), cell-free extract of E. coli HB101 (pNTOM4); assay: Substrate specificity of polypeptide produced by transformant E. coli HB101 (pNTOM4); type: biochemical, Ogataea minuta var. minuta NBRC0975; conditions: 1 mM substrate, 0.25 mM NADPH, pH 6.5, 30° C., 1 min; relative to activity on CBPB as 100%
# Method: as §1
SMILES,relative activity (%) E. coli HB101 (pNTOM3) [1] [%],relative activity (%) E. coli HB101 (pNTOM4) [2] [%]
O=Cc1ccc([N+](=O)[O-])cc1 [p-nitrobenzaldehyde],1166,21
CCOC(=O)C(=O)CCc1ccccc1 [ethyl 2-oxo-4-phenylbutyrate],127,106
CCOC(=O)C(=O)c1ccccc1 [ethyl benzoylformate],296,20
CCOC(=O)C(Cl)C(=O)c1ccccc1 (stereo not shown) [ethyl 2-chloro-3-oxo-3-phenylpropionate],716,5
CC(=O)CC(=O)OCc1ccccc1 [benzyl acetoacetate],883,4
CCOC(=O)CC(=O)COC(C)=O [ethyl 4-acetoxyacetoacetate],465,1
CCCCC(C)=O [2-hexanone],11,0
CC(C=O)c1ccccc1 (stereo not shown) [2-phenylpropionaldehyde],479,3
CC(=O)CO [hydroxyacetone],51,0
COc1ccc2c(c1)CC(=O)CC2 [7-methoxy-2-tetoralone],599,6
CCC(=O)Cc1ccccc1 [1-phenyl-2-butanone],285,2
CCCCCC=O [n-hexylaldehyde],265,3
CCOC(=O)CC(=O)c1ccccc1 [ethyl benzoylacetate],1233,0
CCOC(=O)C(Cl)C(C)=O (stereo not shown) [ethyl 2-chloroacetoacetate],3309,40
